These results are taken from ChEMBL document CHEMBL3400069, “The amide linker in nonpeptide neurotensin receptor ligands plays a key role in calcium signaling at the neurotensin receptor type 2” (Bioorg Med Chem Lett, 2015).

Activity calls are given as the source filed them. The rule behind the calls is not given here. Bounds are passed on as bounds.

The target in test [1] is T1, Neurotensin receptor type 2 (Rattus norvegicus, UniProt Q63384).
T1 sequence (Q63384 whole entry): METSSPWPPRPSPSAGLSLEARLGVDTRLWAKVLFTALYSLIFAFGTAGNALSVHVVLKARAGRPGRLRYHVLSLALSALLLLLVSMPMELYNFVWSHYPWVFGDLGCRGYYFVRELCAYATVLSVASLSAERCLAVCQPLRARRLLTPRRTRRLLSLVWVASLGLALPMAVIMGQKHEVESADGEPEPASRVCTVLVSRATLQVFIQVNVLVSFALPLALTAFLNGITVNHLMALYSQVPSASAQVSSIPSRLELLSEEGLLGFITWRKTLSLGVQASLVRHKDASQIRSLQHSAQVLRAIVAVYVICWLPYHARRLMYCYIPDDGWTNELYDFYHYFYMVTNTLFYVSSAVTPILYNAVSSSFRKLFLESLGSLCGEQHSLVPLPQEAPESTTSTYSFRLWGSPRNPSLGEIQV
Put plainly: Displacement of [I125]neurotensin from rat NTS2 overexpressed in CHO-k1 cells by competitive binding Assay. It is filed as cell-based.

The target of test [2] is T1, Neurotensin receptor type 2. Kind of test: Agonist activity at rat NTS2 overexpressed in CHO-k1 cells assessed as calcium mobilization by FLIPR assay. It is filed as functional, cell-based. (In general: Calcium assays in cells follow changes in intracellular calcium, usually with a dye or a luminescent sensor.)
Test [3] concerns the target Neurotensin receptor type 1 (Rattus norvegicus, UniProt P20789). Kind of test: Displacement of [I125]neurotensin from rat NTS1 overexpressed in CHO-k1 cells by competitive binding Assay. Format: cell-based.
In test [4] the target is Neurotensin receptor type 1 (Rattus norvegicus) (UniProt P20789). Put plainly: Antagonist activity at rat NTS1 overexpressed in CHO-k1 cells assessed as blockade of neurotensin-mediated calcium mobilization after 15 mins by FLIPR assay. It is filed as functional, cell-based.
For test [5], the target named is T2, Neurotensin receptor type 2 (Rattus norvegicus) (UniProt Q63384).
T2 sequence (whole entry): T1 sequence (Q63384 whole entry)
Kind of test: Agonist activity at rat NTS2 overexpressed in CHO-k1 cells assessed as calcium mobilization by FLIPR assay relative to SR142948a. Format: functional, cell-based.

Sequence of Neurotensin receptor type 1 (P20789 whole entry): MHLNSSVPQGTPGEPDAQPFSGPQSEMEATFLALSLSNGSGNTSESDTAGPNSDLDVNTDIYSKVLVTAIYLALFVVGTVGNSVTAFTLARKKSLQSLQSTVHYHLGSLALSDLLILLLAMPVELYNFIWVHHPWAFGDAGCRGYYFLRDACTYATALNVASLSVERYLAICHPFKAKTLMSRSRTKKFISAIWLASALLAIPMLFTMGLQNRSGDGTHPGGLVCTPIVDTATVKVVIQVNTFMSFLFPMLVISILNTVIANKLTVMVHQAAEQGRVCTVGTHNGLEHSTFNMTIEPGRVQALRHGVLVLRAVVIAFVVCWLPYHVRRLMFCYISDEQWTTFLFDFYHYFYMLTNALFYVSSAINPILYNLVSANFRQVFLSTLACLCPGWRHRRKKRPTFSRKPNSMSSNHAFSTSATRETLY
Sequence of Neurotensin receptor type 1 (Rattus norvegicus) (P20789 whole entry): as above

Usually Ki stands for the equilibrium dissociation constant of an inhibitor or competing ligand from its target. Low readings indicate tighter binding, high ones weaker binding. As usually defined, the EC50 is the concentration giving half of the maximal effect. For the compound `COc1cccc(OC)c1-c1cc(CN[C@H](C(=O)O)C2CCCCC2)nn1-c1ccnc2cc(Cl)ccc12`, the Ki in test [1] and in test [3] was more than 10000 nM in each case. In addition, the EC50 entry in test [2] (cho-k1) is on record as “Not Active”.

On to `COc1cccc(OC)c1-c1cc(NC(=O)C2(C(=O)O)CCCCC2)nn1-c1cccc2ccccc12`, for which the results for the Ki in test [1] and in test [3] were 128 nM and 10200 nM, respectively. In test [2] (cho-k1), the EC50 result is given as “Not Active”.

Broadly, the Emax is the greatest response seen or fitted, relative to the assay's reference. As for `COc1cccc(OC)c1-c1cc(NC(=O)C2(C(=O)O)CCCCC2)nn1-c1ccc(F)cc1`, the inhibition constant Ki in test [1] was 271 nM; in test [3], more than 25000 nM. Further, in test [2] (read-out: EC50), the EC50 was 55 nM. Further, the Ke entry in test [4] was “inactive”. In addition, the Emax in test [5] was 10%.

Turning to `COc1ccccc1-c1cc(NC(=O)C2(C(=O)O)CCCCC2)nn1-c1ccc(F)cc1`, the values for the Ki in test [1] and in test [3] were 6340 nM and more than 25000 nM, respectively. Also, the 50% effective concentration (EC50) in test [2] (read-out: EC50) is 951 nM. Moreover, the Ke result in test [4] is “inactive”. For the same compound, the Emax in test [5] was determined as 13%.

For `COc1cccc(OC)c1-c1cc(C(=O)NC2(C(=O)O)CCCCC2)nn1-c1cccc2ccccc12`, the Ki in test [3] is 1210 nM.

In the case of `COc1cccc(OC)c1-c1cc(C(=O)NC2(C(=O)O)CCCCC2)nn1-c1ccnc2cc(Cl)ccc12`, the Ki in test [3] turned out to be 177 nM.

With `COc1ccccc1-c1cc(C(=O)NC2(C(=O)O)CCCCC2)nn1-c1ccc(F)cc1`, the Ki in test [3] is more than 25000 nM.

Take `COc1cccc(OC)c1-c1cc(NC(=O)C2(C(=O)O)CCCCC2)nn1-c1ccnc2cc(Cl)ccc12`: the Ki in test [1] came to 140 nM; in test [3], 7180 nM. Also, the EC50 result in test [2] (cho-k1) was “Not Active”.
